Columns and labels:
TaOR8 [1] = test system: T1, TaOR8; assay: two-electrode voltage clamp in Xenopus oocytes, concentration-response; format: cell-based, Toxorhynchites amboinensis
T1 construct: gene Or8; with TaORco

TaOR8 [2] = test system: T1, TaOR8; assay: two-electrode voltage clamp; […] DEET against […] (R)-octenol response; format: cell-based, Toxorhynchites amboinensis; details: 1000 µM

## C=CC(O)CCCCC (racemic) [(RS), (RS)-1-octen-3-ol]
TaOR8 [1]
  EC50: 3.29 µM

## CCN(CC)C(=O)c1cccc(C)c1 [DEET, N,N-Diethyl-meta-toluamide]
TaOR8 [2]
  % inhibition at 10^-3 M: 90

## C=C[C@H](O)CCCCC [(R), (R)-(−)-1-octen-3-ol]
TaOR8 [1]
  EC50: 0.401 µM

## C=C[C@@H](O)CCCCC [(S), (S)-(+)-1-octen-3-ol]
TaOR8 [1]
  EC50: 50.6 µM
